{"source": "the NIST ThermoML archive (doi:10.1021/je300557g)", "conditions": "101.33 kPa, Liquid; for viscosity: Capillary tube (Ostwald / Ubbelohde) method; for mass density: Vibrating tube method", "note": "± gives the expanded uncertainty stated by the source."}
{"smiles": "CCCC[n+]1ccccc1.F[B-](F)(F)F", "note": "[1-butylpyridinium tetrafluoroborate]", "values": [{"measurement": "viscosity", "setting": "293.15 K", "value": "220.54 ± 5.7", "unit": "mPa·s"}, {"measurement": "mass density", "setting": "293.15 K", "value": "1217.11 ± 0.42", "unit": "kg/m3"}, {"measurement": "viscosity", "setting": "303.15 K", "value": "119.52 ± 2.1", "unit": "mPa·s"}, {"measurement": "mass density", "setting": "303.15 K", "value": "1210.83 ± 0.42", "unit": "kg/m3"}, {"measurement": "viscosity", "setting": "313.15 K", "value": "71.11 ± 0.89", "unit": "mPa·s"}, {"measurement": "mass density", "setting": "313.15 K", "value": "1203.72 ± 0.42", "unit": "kg/m3"}, {"measurement": "viscosity", "setting": "323.15 K", "value": "45.59 ± 0.54", "unit": "mPa·s"}, {"measurement": "mass density", "setting": "323.15 K", "value": "1196.68 ± 0.41", "unit": "kg/m3"}]}
{"smiles": "CCCC[n+]1ccc(C)cc1.F[B-](F)(F)F", "note": "[1-butyl-4-methylpyridinium tetrafluoroborate]", "values": [{"measurement": "viscosity", "setting": "293.15 K", "value": "284.62 ± 8.5", "unit": "mPa·s"}, {"measurement": "mass density", "setting": "293.15 K", "value": "1185.92 ± 0.4", "unit": "kg/m3"}, {"measurement": "viscosity", "setting": "303.15 K", "value": "144.68 ± 2.9", "unit": "mPa·s"}, {"measurement": "mass density", "setting": "303.15 K", "value": "1179.12 ± 0.4", "unit": "kg/m3"}, {"measurement": "viscosity", "setting": "313.15 K", "value": "85.53 ± 1.2", "unit": "mPa·s"}, {"measurement": "mass density", "setting": "313.15 K", "value": "1172.12 ± 0.39", "unit": "kg/m3"}, {"measurement": "viscosity", "setting": "323.15 K", "value": "55.53 ± 0.63", "unit": "mPa·s"}, {"measurement": "mass density", "setting": "323.15 K", "value": "1165.52 ± 0.39", "unit": "kg/m3"}]}
{"smiles": "CCCC[n+]1cccc(C)c1.F[B-](F)(F)F", "note": "[1-butyl-3-methylpyridinium tetrafluoroborate]", "values": [{"measurement": "viscosity", "setting": "293.15 K", "value": "246.62 ± 6.8", "unit": "mPa·s"}, {"measurement": "mass density", "setting": "293.15 K", "value": "1185.66 ± 0.4", "unit": "kg/m3"}, {"measurement": "viscosity", "setting": "303.15 K", "value": "129.91 ± 2.4", "unit": "mPa·s"}, {"measurement": "mass density", "setting": "303.15 K", "value": "1178.86 ± 0.4", "unit": "kg/m3"}, {"measurement": "viscosity", "setting": "313.15 K", "value": "76.46 ± 1", "unit": "mPa·s"}, {"measurement": "mass density", "setting": "313.15 K", "value": "1172.11 ± 0.39", "unit": "kg/m3"}, {"measurement": "viscosity", "setting": "323.15 K", "value": "48.18 ± 0.57", "unit": "mPa·s"}, {"measurement": "mass density", "setting": "323.15 K", "value": "1165.37 ± 0.39", "unit": "kg/m3"}]}
{"smiles": "CCO", "note": "[ethanol]", "values": [{"measurement": "viscosity", "setting": "293.15 K", "value": "1.18 ± 0.014", "unit": "mPa·s"}, {"measurement": "mass density", "setting": "293.15 K", "value": "789.48 ± 0.24", "unit": "kg/m3"}, {"measurement": "viscosity", "setting": "303.15 K", "value": "0.981 ± 0.011", "unit": "mPa·s"}, {"measurement": "mass density", "setting": "303.15 K", "value": "781.3 ± 0.24", "unit": "kg/m3"}, {"measurement": "viscosity", "setting": "313.15 K", "value": "0.822 ± 0.0097", "unit": "mPa·s"}, {"measurement": "mass density", "setting": "313.15 K", "value": "772.57 ± 0.24", "unit": "kg/m3"}, {"measurement": "viscosity", "setting": "323.15 K", "value": "0.6939 ± 0.0083", "unit": "mPa·s"}, {"measurement": "mass density", "setting": "323.15 K", "value": "763.65 ± 0.25", "unit": "kg/m3"}]}
{"smiles": "CO", "note": "[methanol]", "values": [{"measurement": "viscosity", "setting": "293.15 K", "value": "0.5833 ± 0.0069", "unit": "mPa·s"}, {"measurement": "mass density", "setting": "293.15 K", "value": "791.24 ± 0.23", "unit": "kg/m3"}, {"measurement": "viscosity", "setting": "303.15 K", "value": "0.507 ± 0.006", "unit": "mPa·s"}, {"measurement": "mass density", "setting": "303.15 K", "value": "781.81 ± 0.23", "unit": "kg/m3"}, {"measurement": "viscosity", "setting": "313.15 K", "value": "0.4438 ± 0.0053", "unit": "mPa·s"}, {"measurement": "mass density", "setting": "313.15 K", "value": "772.29 ± 0.24", "unit": "kg/m3"}, {"measurement": "viscosity", "setting": "323.15 K", "value": "0.3873 ± 0.0047", "unit": "mPa·s"}, {"measurement": "mass density", "setting": "323.15 K", "value": "762.63 ± 0.24", "unit": "kg/m3"}]}
